Reference: ChEMBL document CHEMBL1136378, “Novel 6,7-diphenyl-2,3,8,8a-tetrahydro-1H-indolizin-5-one analogues as cytotoxic agents” (Bioorg Med Chem Lett, 2003)

How the values were obtained:
SK-OV-3 = assay: In vitro cytotoxic activity tested against human ovarian cancer (SK-OV3) cell line; type: functional
NCI/ADR-RES = assay: In vitro cytotoxic activity tested against human breast cancer MCF/ADR cell line
U-251 = assay: In vitro cytotoxic activity tested against human CNS (U251) cell line; type: functional
M14 = assay: In vitro cytotoxic activity was tested against human melanoma cancer (M14) cell line; type: functional
SW-620 = assay: In vitro cytotoxic activity tested against human colon cancer (SW620) cell line; type: functional
A498 = assay: In vitro cytotoxic activity was tested against human renal cancer (A498) cell line; type: functional
[1] = Average growth inhibition against cell lines was calculated; type: functional
NCI-H522 = assay: In vitro cytotoxic activity tested against human lung cancer (H-522) cell line
DU-145 = assay: In vitro cytotoxic activity tested against human prostate cancer (DU145) cell line; type: functional
[2] = Tmax value was determined at a dose of 200 mg/kg (i.p.) in Mice; type: ADME, organism-based; set-up: dose 200 mg/kg, route intraperitoneal; conditions: mouse, in vivo, ip
[3] = Area under curve was determined at a dose of 200 mg/kg (i.p.) in Mice; type: ADME, organism-based; set-up: dose 200 mg/kg, route intraperitoneal; conditions: mouse, in vivo, ip
[4] = Half life beta(2,4,6,8h) value was determined at a dose of 200 mg/kg (i.p.) in Mice; type: ADME, organism-based; set-up: dose 200 mg/kg, route intraperitoneal; conditions: mouse, in vivo, ip, read-out: T1/2 beta (converted)
[5] = Cmax value was determined at a dose of 200 mg/kg (i.p.) in Mice; type: ADME, organism-based; set-up: dose 200 mg/kg, route intraperitoneal; conditions: mouse, in vivo, ip

## CSc1ccc(C2=C(c3ccc(OCC4CO4)cc3)C(=O)N3CCCC3C2)cc1 (stereo not given)
SK-OV-3
  GI50: 10 µM
NCI/ADR-RES
  GI50: 10 µM
U-251
  GI50: 0.08 µM
M14
  GI50: 0.09 µM
SW-620
  GI50: 0.09 µM
A498
  GI50: 0.5 µM
[1]
  GI50: 2.6 µM
NCI-H522
  GI50: 0.03 µM
DU-145
  GI50: 0.5 µM

## COc1ccc(C2=C(c3ccc(SC)cc3)CC3CCCN3C2=O)cc1O (stereo not given)
SK-OV-3
  GI50: > 100 µM
NCI/ADR-RES
  GI50: 5 µM
U-251
  GI50: 5 µM
SW-620
  GI50: 20 µM
[1]
  GI50: 23.6 µM
NCI-H522
  GI50: 6 µM
DU-145
  GI50: 6 µM

## COc1ccc(C2=C(c3ccc(SC)cc3)CC3CCCN3C2)cc1O (stereo not given)
SK-OV-3
  GI50: > 100 µM
NCI/ADR-RES
  GI50: > 100 µM
U-251
  GI50: > 100 µM
M14
  GI50: > 100 µM
SW-620
  GI50: > 100 µM
A498
  GI50: > 100 µM
[1]
  GI50: > 100 µM
NCI-H522
  GI50: > 100 µM
DU-145
  GI50: > 100 µM

## COc1ccc(/C=C\c2cc(OC)c(OC)c(OC)c2)cc1O [COMBRETASTATIN A4]
SK-OV-3
  GI50: < 0.0001 µM
NCI/ADR-RES
  GI50: 0.09 µM
U-251
  GI50: 0.006 µM
M14
  GI50: 0.0001 µM
SW-620
  GI50: 0.005 µM
A498
  GI50: 0.61 µM
[1]
  GI50: 0.103 µM
NCI-H522
  GI50: 0.007 µM

## COc1ccc(C2=C(c3ccc(SC)cc3)CC3CCCN3C2=O)cc1Br (stereo not given)
SK-OV-3
  GI50: 3 µM
NCI/ADR-RES
  GI50: 6 µM
U-251
  GI50: 0.8 µM
M14
  GI50: 3 µM
SW-620
  GI50: 5 µM
A498
  GI50: 0.6 µM
[1]
  GI50: 2.5 µM
NCI-H522
  GI50: 0.7 µM
DU-145
  GI50: 0.9 µM

## COc1cc(C2=C(c3ccc(SC)cc3)CC3CCCN3C2=O)ccc1O (stereo not given)
SK-OV-3
  GI50: 8 µM
NCI/ADR-RES
  GI50: 8 µM
U-251
  GI50: 8 µM
M14
  GI50: 9 µM
SW-620
  GI50: 9 µM
A498
  GI50: 5 µM
[1]
  GI50: 7.75 µM
NCI-H522
  GI50: 7 µM
DU-145
  GI50: 8 µM

## CSc1ccc(C2=C(c3ccc(C)cc3)C(=O)N3CCCC3C2)cc1 (stereo not given)
SK-OV-3
  GI50: 9 µM
NCI/ADR-RES
  GI50: 0.6 µM
U-251
  GI50: 0.4 µM
M14
  GI50: 6 µM
SW-620
  GI50: 3 µM
[2]
  Tmax: 0.25 h
A498
  GI50: 4 µM
[1]
  GI50: 3 µM
[3]
  AUC: 38.5 µM·h
NCI-H522
  GI50: 0.9 µM
DU-145
  GI50: 0.6 µM
[4]
  half-life: 6.24 h
[5]
  Cmax: 8.02 µM

## CSc1ccc(C2=C(c3ccc(SC)cc3)C(=O)N3CCCC3C2)cc1 (stereo not given)
SK-OV-3
  GI50: 2 µM
NCI/ADR-RES
  GI50: 8 µM
U-251
  GI50: 5 µM
M14
  GI50: 5 µM
SW-620
  GI50: 7 µM
[2]
  Tmax: 1 h
A498
  GI50: 15 µM
[1]
  GI50: 8.1 µM
[3]
  AUC: 2.5 µM·h
NCI-H522
  GI50: 15 µM
DU-145
  GI50: 8 µM
[5]
  Cmax: 0.86 µM

## COc1ccc(C2=C(c3ccc(SC)cc3)CC3CCCN3C2=O)cc1C (stereo not given)
SK-OV-3
  GI50: 15 µM
NCI/ADR-RES
  GI50: 0.4 µM
U-251
  GI50: 0.09 µM
M14
  GI50: 0.2 µM
SW-620
  GI50: 0.5 µM
A498
  GI50: 0.4 µM
[1]
  GI50: 2.1 µM
NCI-H522
  GI50: 0.1 µM
DU-145
  GI50: 0.9 µM

## COc1ccc(C2=C(c3ccc(SC)cc3)CC3CCCN3C2=O)cc1 (stereo not given)
SK-OV-3
  GI50: 3 µM
NCI/ADR-RES
  GI50: 5 µM
U-251
  GI50: 2 µM
M14
  GI50: 4 µM
SW-620
  GI50: 3 µM
A498
  GI50: 0.8 µM
[1]
  GI50: 2.4 µM
NCI-H522
  GI50: 0.8 µM
DU-145
  GI50: 0.9 µM

## COc1ccc(C2=C(c3ccc(OC)c(OC)c3)CN3CCCC3C2)cc1OC (stereo not given)
SK-OV-3
  GI50: > 100 µM
NCI/ADR-RES
  GI50: > 100 µM
U-251
  GI50: > 100 µM
M14
  GI50: > 100 µM
SW-620
  GI50: > 100 µM
A498
  GI50: > 100 µM
[1]
  GI50: > 100 µM
NCI-H522
  GI50: > 100 µM
DU-145
  GI50: > 100 µM

## CSc1ccc(C2=C(c3ccc(Br)cc3)C(=O)N3CCCC3C2)cc1 (stereo not given)
SK-OV-3
  GI50: 9 µM
NCI/ADR-RES
  GI50: 8 µM
U-251
  GI50: 7 µM
M14
  GI50: 9 µM
SW-620
  GI50: 7 µM
A498
  GI50: 7 µM
[1]
  GI50: 7.8 µM
NCI-H522
  GI50: 7 µM
DU-145
  GI50: 9 µM

## CSc1ccc(C2=C(c3ccc(OCCN4CCOCC4)cc3)C(=O)N3CCCC3C2)cc1 (stereo not given)
SK-OV-3
  GI50: 9 µM
NCI/ADR-RES
  GI50: 9 µM
U-251
  GI50: 9 µM
M14
  GI50: 20 µM
SW-620
  GI50: 9 µM
A498
  GI50: 9 µM
[1]
  GI50: 11.5 µM
NCI-H522
  GI50: 7 µM
DU-145
  GI50: 20 µM

## CSc1ccc(C2=C(c3ccc(O)cc3)C(=O)N3CCCC3C2)cc1 (stereo not given)
SK-OV-3
  GI50: > 100 µM
NCI/ADR-RES
  GI50: > 100 µM
U-251
  GI50: > 100 µM
M14
  GI50: > 100 µM
SW-620
  GI50: > 100 µM
A498
  GI50: > 100 µM
[1]
  GI50: > 100 µM
NCI-H522
  GI50: > 100 µM
DU-145
  GI50: > 100 µM

## COc1ccc(C2=C(c3ccc(SC)cc3)CC3CCCN3C2=O)cc1OC (stereo not given)
SK-OV-3
  GI50: 9 µM
NCI/ADR-RES
  GI50: 0.6 µM
U-251
  GI50: 0.3 µM
M14
  GI50: 5 µM
SW-620
  GI50: 3 µM
[2]
  Tmax: 0.25 h
A498
  GI50: 8 µM
[1]
  GI50: 3.6 µM
[3]
  AUC: 102 µM·h
NCI-H522
  GI50: 2 µM
DU-145
  GI50: 1.5 µM
[4]
  half-life: 7.29 h
[5]
  Cmax: 23 µM

## COc1ccc(C2=C(c3cc(OC)c(OC)c(OC)c3)CC3CCCN3C2=O)cc1O (stereo not given)
SK-OV-3
  GI50: > 100 µM
NCI/ADR-RES
  GI50: > 100 µM
U-251
  GI50: > 100 µM
M14
  GI50: > 100 µM
SW-620
  GI50: > 100 µM
A498
  GI50: > 100 µM
[1]
  GI50: > 100 µM
NCI-H522
  GI50: > 100 µM
DU-145
  GI50: > 100 µM

## COc1ccc(C2=C(c3ccc(OC)c(OC)c3)C(=O)N3CCCC3C2)cc1OC (stereo not given)
SK-OV-3
  GI50: > 100 µM
NCI/ADR-RES
  GI50: > 100 µM
U-251
  GI50: > 100 µM
M14
  GI50: > 100 µM
SW-620
  GI50: > 100 µM
A498
  GI50: > 100 µM
[1]
  GI50: > 100 µM
NCI-H522
  GI50: > 100 µM
DU-145
  GI50: > 100 µM

## CSc1ccc(C2=C(c3ccc(O)c(O)c3)C(=O)N3CCCC3C2)cc1 (stereo not given)
SK-OV-3
  GI50: 80 µM
NCI/ADR-RES
  GI50: 80 µM
U-251
  GI50: 30 µM
SW-620
  GI50: 50 µM
[1]
  GI50: 60 µM
NCI-H522
  GI50: 60 µM
DU-145
  GI50: 60 µM

## CSc1ccc(C2=C(c3ccc(F)c(C)c3)C(=O)N3CCCC3C2)cc1 (stereo not given)
SK-OV-3
  GI50: 0.3 µM
NCI/ADR-RES
  GI50: 0.5 µM
U-251
  GI50: 0.2 µM
M14
  GI50: 0.8 µM
SW-620
  GI50: 0.6 µM
A498
  GI50: 0.3 µM
[1]
  GI50: 1.1 µM
NCI-H522
  GI50: 0.5 µM
DU-145
  GI50: 0.5 µM

## COc1ccc(C2=C(c3ccc(SC)cc3)CC3CCCN3C2=O)cc1OC(=O)C1CCCN1C(=O)OC(C)(C)C (stereo not given)
SK-OV-3
  GI50: 10 µM
NCI/ADR-RES
  GI50: 4 µM
U-251
  GI50: 2 µM
SW-620
  GI50: 10 µM
[1]
  GI50: 6 µM
NCI-H522
  GI50: 5 µM
DU-145
  GI50: 5 µM

## CSc1ccc(C2=C(c3ccc(C)c(C)c3)C(=O)N3CCCC3C2)cc1 (stereo not given)
SK-OV-3
  GI50: 0.3 µM
NCI/ADR-RES
  GI50: 0.8 µM
U-251
  GI50: 10 µM
M14
  GI50: 0.8 µM
SW-620
  GI50: 0.7 µM
A498
  GI50: 0.3 µM
[1]
  GI50: 1.7 µM
NCI-H522
  GI50: 0.3 µM
DU-145
  GI50: 0.5 µM

## COc1ccc(C2=C(c3ccc(SC)cc3)CC3CCCN3C2=O)cc1OC(=O)CNC(=O)OC(C)(C)C (stereo not given)
SK-OV-3
  GI50: 20 µM
NCI/ADR-RES
  GI50: 6 µM
U-251
  GI50: 6 µM
SW-620
  GI50: 20 µM
[1]
  GI50: 11.5 µM
NCI-H522
  GI50: 7 µM
DU-145
  GI50: 10 µM
